Measured values taken from patent US12403128B2, “Compositions and methods for blocking sodium channels” (University of Virginia Patent Foundation, priority 2017, dated 2025).
Counter-ions that a name gives are not always drawn.

Biological target: Nav1.6 (Homo sapiens, UniProt Q9UQD0)
Experiment: % block of Nav1.6 at 100 μM and IC50 (NaV1.6)
Type: cell-based
Settings: for inhibition at 100 µM: 100 μM compound; for IC50: NaV1.6, Table 2, MV1060-MV1091, unit inferred, read-out: IC50
Protocol: Evaluation of Compounds for % Block of Nav1.6 at 100 μM
Compounds of the present invention were tested in an assay for % block of Nav1.6 at a concentration of 100 μM compound. Table 1 also indicates the melting point ranges for some compounds.
Some such compounds correspond to a compound of Formula III, wherein R9 is substituted with a halogen, a nitro or a CF3 group. In comparing MV1089, MV1090 and MV1091, it is shown that compounds of Formula III where R3 is H result in higher % block than when R3 is substituted. e.g., by OCH3. In comparing MV1066, MV1084, MV1085, MV1086, MV1087 and MV1088, it is shown that compounds of Formula III where R9 is halogen, a nitro or a CF3 group result in higher % block than when R9 is OCH3, COOH or CH3.

Nav1.6, sequence (Q9UQD0 whole entry): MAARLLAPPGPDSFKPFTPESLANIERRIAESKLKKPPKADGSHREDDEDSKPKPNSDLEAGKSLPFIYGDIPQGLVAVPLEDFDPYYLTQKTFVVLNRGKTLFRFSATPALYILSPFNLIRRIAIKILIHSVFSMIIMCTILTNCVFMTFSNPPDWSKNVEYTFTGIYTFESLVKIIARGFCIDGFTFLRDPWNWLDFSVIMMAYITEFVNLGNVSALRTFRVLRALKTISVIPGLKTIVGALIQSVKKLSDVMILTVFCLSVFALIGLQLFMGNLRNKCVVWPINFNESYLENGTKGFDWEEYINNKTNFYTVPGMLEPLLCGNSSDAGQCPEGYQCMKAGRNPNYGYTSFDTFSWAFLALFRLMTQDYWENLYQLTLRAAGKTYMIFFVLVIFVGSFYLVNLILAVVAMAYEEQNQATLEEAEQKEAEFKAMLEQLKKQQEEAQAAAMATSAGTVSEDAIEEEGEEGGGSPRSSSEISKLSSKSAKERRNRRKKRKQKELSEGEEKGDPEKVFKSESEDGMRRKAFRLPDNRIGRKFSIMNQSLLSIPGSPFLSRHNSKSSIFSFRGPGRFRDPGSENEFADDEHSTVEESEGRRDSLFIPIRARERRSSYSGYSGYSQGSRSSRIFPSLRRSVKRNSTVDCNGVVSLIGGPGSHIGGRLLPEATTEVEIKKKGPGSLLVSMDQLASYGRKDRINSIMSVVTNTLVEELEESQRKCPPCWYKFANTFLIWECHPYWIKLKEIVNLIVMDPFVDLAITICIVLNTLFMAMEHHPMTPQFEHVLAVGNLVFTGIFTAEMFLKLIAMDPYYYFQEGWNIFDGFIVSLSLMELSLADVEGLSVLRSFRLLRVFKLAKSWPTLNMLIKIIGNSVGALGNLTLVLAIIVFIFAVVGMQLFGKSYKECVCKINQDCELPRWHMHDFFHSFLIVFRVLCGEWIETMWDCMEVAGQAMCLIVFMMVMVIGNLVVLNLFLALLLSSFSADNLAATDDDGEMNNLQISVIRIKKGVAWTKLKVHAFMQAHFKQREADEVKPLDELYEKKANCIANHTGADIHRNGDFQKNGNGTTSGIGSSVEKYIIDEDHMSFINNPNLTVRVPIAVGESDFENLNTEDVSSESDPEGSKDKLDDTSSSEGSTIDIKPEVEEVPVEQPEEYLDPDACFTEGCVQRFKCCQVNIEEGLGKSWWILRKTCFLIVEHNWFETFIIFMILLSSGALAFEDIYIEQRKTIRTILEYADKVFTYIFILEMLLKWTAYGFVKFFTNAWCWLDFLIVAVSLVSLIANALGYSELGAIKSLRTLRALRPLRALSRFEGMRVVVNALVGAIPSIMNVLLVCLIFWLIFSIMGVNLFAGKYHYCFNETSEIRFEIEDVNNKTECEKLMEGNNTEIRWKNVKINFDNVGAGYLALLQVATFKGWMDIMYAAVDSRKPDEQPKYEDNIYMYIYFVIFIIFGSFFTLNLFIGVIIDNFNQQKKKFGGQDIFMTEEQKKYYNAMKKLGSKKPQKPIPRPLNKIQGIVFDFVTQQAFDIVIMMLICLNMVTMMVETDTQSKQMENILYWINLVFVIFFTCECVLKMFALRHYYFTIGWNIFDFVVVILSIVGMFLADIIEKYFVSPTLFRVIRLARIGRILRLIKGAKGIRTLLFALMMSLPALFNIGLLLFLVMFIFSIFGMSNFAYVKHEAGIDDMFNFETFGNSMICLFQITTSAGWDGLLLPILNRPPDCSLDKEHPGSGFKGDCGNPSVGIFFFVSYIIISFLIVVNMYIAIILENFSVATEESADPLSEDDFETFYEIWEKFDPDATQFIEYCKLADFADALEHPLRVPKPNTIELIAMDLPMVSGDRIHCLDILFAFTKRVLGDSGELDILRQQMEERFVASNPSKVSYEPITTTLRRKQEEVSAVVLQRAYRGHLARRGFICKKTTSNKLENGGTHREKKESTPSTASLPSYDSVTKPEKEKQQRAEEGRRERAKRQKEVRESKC

For `Clc1ccc(-c2ncc[nH]2)cc1` [MV1353, 2-(4-CHLORO-PHENYL)-1H-IMIDAZOLE OXALATE], which inhibition at 100 µM is on record?
Its inhibition at 100 µM is 30%.

How did the inhibition at 100 µM turn out when `FC(F)(F)c1ccccc1-c1nc2ccccc2[nH]1` [MV1075, 2-(2-trifluoromethyl-phenyl)-1H-1,3-benzodiazole] was run?
The inhibition at 100 µM was 20%.

And the IC50?
The IC50 was > 100 µM.

How did the inhibition at 100 µM turn out when `COc1cccc(-c2nc3ccccc3[nH]2)c1` [MV1074, 2-(3-methoxyphenyl)-1H-1,3-benzodiazole] was run?
The inhibition at 100 µM was 40%.

What about the IC50 of the same compound?
Its IC50 is > 100 µM.

For `O=[N+]([O-])c1ccc2nc(-c3ccccc3)[nH]c2c1` [MV1084, 6-nitro-2-phenyl-1H-1,3-benzodiazole], which inhibition at 100 µM is on record?
The inhibition at 100 µM was 70%.

For `CCCc1nc(-c2cccc(OC)c2)[nH]c1C` [MV1369, 2-(3-METHOXY-PHENYL)-5-METHYL-4-PROPYL-1H-IMIDAZOLE OXALATE], which inhibition at 100 µM is on record?
The inhibition at 100 µM was 100%.

Which inhibition at 100 µM does the source give for `O=[N+]([O-])c1cccc(-c2nc3ccccc3[nH]2)c1` [MV1071, 2-(3-nitrophenyl)-1H-1,3-benzodiazole] here?
Its inhibition at 100 µM is 30%.

What about the IC50 of the same compound?
The IC50 was > 100 µM.

What does the source list for `O=[N+]([O-])c1ccc(-c2nc3ccccc3[nH]2)cc1` [MV1072, 2-(4-nitrophenyl)-1H-1,3-benzodiazole]?
inhibition at 100 µM: 20%; IC50: > 100 µM

Which inhibition at 100 µM does the source give for `Cc1cnc(-c2ccc(Cl)cc2)[nH]1` [MV1359, 2-(4-CHLORO-PHENYL)-5-METHYL-1H-IMIDAZOLE OXALATE] here?
Its inhibition at 100 µM is 75%.

For `COc1ccc(C(=O)Nc2cccc(-c3c[nH]c(-c4ccccc4)n3)c2)cc1` [MV1309, 4-METHOXY-N-[3-[2-PHENYL-1H-IMIDAZOL-4-YL]-PHENYL]-BENZAMIDE HYDROCHLORIDE], which inhibition at 100 µM is on record?
The inhibition at 100 µM was 75%.

For `FC(F)(F)c1cccc(-c2nc3ccccc3[nH]2)c1` [MV1076, 2-(3-trifluoromethyl-phenyl)-1H-1,3-benzodiazole], which inhibition at 100 µM is on record?
The inhibition at 100 µM was 60%.

With `CCCc1nc(-c2ccc(OC)cc2)[nH]c1C` [MV1368, 2-(4-METHOXY-PHENYL)-5-METHYL-4-PROPYL-1H-IMIDAZOLE OXALATE] as the compound, how does the inhibition at 100 µM read?
Its inhibition at 100 µM is 85%.

How did the inhibition at 100 µM turn out when `Cc1ccc2nc(-c3ccccc3)[nH]c2c1` [MV1088, 6-methyl-2-phenyl-1H-1,3-benzodiazole] was run?
Its inhibition at 100 µM is 55%.

With `COc1ccc(-c2nc3cc(Cl)ccc3[nH]2)cc1` [MV1091, 6-chloro-2-(4-methoxyphenyl)-1H-1,3-benzodiazole] as the compound, how does the inhibition at 100 µM read?
The inhibition at 100 µM was 0%.

What about the IC50 of the same compound?
The IC50 was > 100 µM.

With `Cc1cnc(-c2cccc(Cl)c2)[nH]1` [MV1360, 2-(3-CHLORO-PHENYL)-5-METHYL-1H-IMIDAZOLE OXALATE] as the compound, how does the inhibition at 100 µM read?
Its inhibition at 100 µM is 70%.

What does the source list for `FC(F)(F)c1ccc2nc(-c3ccccc3)[nH]c2c1` [MV1086, 6-trifluoromethyl-2-phenyl-1H-1,3-benzodiazole]?
inhibition at 100 µM: 90%; IC50: 24.7 µM

For `Cc1nc(-c2cccc(Cl)c2)[nH]c1C` [MV1366, 2-(3-CHLORO-PHENYL)-4,5-DIMETHYL-1H-IMIDAZOLE OXALATE], which inhibition at 100 µM is on record?
The inhibition at 100 µM was 95%.

With `COc1cccc(-c2ncc(C)[nH]2)c1` [MV1357, 2-(3-METHOXY PHENYL)-5-METHYL-1H-IMIDAZOLE OXALATE] as the compound, how does the inhibition at 100 µM read?
Its inhibition at 100 µM is 90%.

With `Cc1ccc(-c2nc3ccccc3[nH]2)cc1` [MV1083, 2-(4-methylphenyl)-1H-1,3-benzodiazole] as the compound, how does the inhibition at 100 µM read?
Its inhibition at 100 µM is 30%.

And the IC50?
Its IC50 is > 100 µM.

Which inhibition at 100 µM does the source give for `COc1ccccc1-c1ncc[nH]1` [MV1352, 2-(2-METHOXY-PHENYL)-1H-IMIDAZOLE OXALATE] here?
Its inhibition at 100 µM is 30%.

With `COc1ccc(-c2nc(C)c(C)[nH]2)cc1` [MV1362, 2-(4-METHOXY-PHENYL)-4,5-DIMETHYL-1H-IMIDAZOLE OXALATE] as the compound, how does the inhibition at 100 µM read?
Its inhibition at 100 µM is 85%.

Which results are given for `O=C(O)c1ccc(-c2nc3ccccc3[nH]2)cc1` [MV1080, 4-(1H-1,3-benzodiazol-2-yl)benzoic acid]?
inhibition at 100 µM: 10%; IC50: > 100 µM

`COc1ccc(-c2nc(-c3ccc(NC(=O)c4ccc(Cl)cc4)cc3)c[nH]2)cc1` [MV1306, 4-CHLORO-N-(4-[2-(4-METHOXY-PHENYL)-1H-IMIDAZOL-4-YL]-PHENYL)-BENZAMIDE HYDROCHLORIDE] was tested. Which inhibition at 100 µM did it give?
The inhibition at 100 µM was 10%.

How did the inhibition at 100 µM turn out when `c1ccc(-c2nc3ccccc3[nH]2)cc1` [MV1060, 2-Phenyl-benzimidazole] was run?
Its inhibition at 100 µM is 30%.

What about the IC50 of the same compound?
The IC50 was > 100 µM.

Which inhibition at 100 µM does the source give for `COc1ccc(C(=O)Nc2ccc(-c3c[nH]c(-c4ccc(OC)cc4)n3)cc2)cc1` [MV1304, 4-METHOXY-N-(4-[2-(4-METHOXY-PHENYL)-1H-IMIDAZOL-4-YL]-PHENYL)-BENZAMIDE HYDROCHLORIDE] here?
Its inhibition at 100 µM is 40%.

With `COc1ccc(-c2nc(-c3cccc(NC(=O)c4ccc(Cl)cc4)c3)c[nH]2)cc1` [MV1312, 4-CHLORO-N-(3-[2-(4-METHOXY-PHENYL)-1H-IMIDAZOL-4-YL]-PHENYL)-BENZAMIDE HYDROCHLORIDE] as the compound, how does the inhibition at 100 µM read?
Its inhibition at 100 µM is 85%.

How did the inhibition at 100 µM turn out when `COc1cccc(-c2nc(C)c(C)[nH]2)c1` [MV1363, 2-(3-METHOXY-PHENYL)-4,5-DIMETHYL-1H-IMIDAZOLE OXALATE] was run?
Its inhibition at 100 µM is 80%.

How did the inhibition at 100 µM turn out when `COc1ccc(-c2ncc(C)[nH]2)cc1` [MV1356, 2-(4-METHOXY-PHENYL)-5-METHYL-1H-IMIDAZOLE OXALATE] was run?
The inhibition at 100 µM was 65%.

How did the inhibition at 100 µM turn out when `Clc1ccccc1-c1nc2ccccc2[nH]1` [MV1068, 2-(2-chlorophenyl)-1H-1,3-benzodiazole] was run?
The inhibition at 100 µM was 75%.

What about the IC50 of the same compound?
The IC50 was 41.6 µM.

For `O=C(Nc1ccc(-c2c[nH]c(-c3ccccc3)n2)cc1)c1ccccc1` [MV1301, N-(4-[2-PHENYL-1H-IMIDAZOL-4-YL)-PHENYL]-BENZAMIDE HYDROCHLORIDE], which inhibition at 100 µM is on record?
The inhibition at 100 µM was 0%.

Which inhibition at 100 µM does the source give for `Clc1cccc(-c2ncc[nH]2)c1` [MV1354, 2-(3-CHLORO-PHENYL)-1H-IMIDAZOLE OXALATE] here?
Its inhibition at 100 µM is 20%.

Which inhibition at 100 µM does the source give for `Cc1nc(-c2ccc(Cl)cc2)[nH]c1C` [MV1365, 2-(4-CHLORO-PHENYL)-4,5-DIMETHYL-1H-IMIDAZOLE OXALATE] here?
Its inhibition at 100 µM is 85%.

`Cc1cccc(-c2nc3ccccc3[nH]2)c1` [MV1082, 2-(3-methylphenyl)-1H-1,3-benzodiazole] was tested. Which inhibition at 100 µM did it give?
The inhibition at 100 µM was 65%.

Which results are given for `COc1ccccc1-c1nc2cc(Cl)ccc2[nH]1` [MV1089, 6-chloro-2-(2-methoxyphenyl]-1H-1,3-benzodiazole]?
inhibition at 100 µM: 90%; IC50: 40.1 µM

With `COc1ccc(-c2nc(-c3ccc(NC(=O)c4ccccc4)cc3)c[nH]2)cc1` [MV1302, N-(4-[2-(4-METHOXY-PHENYL-1H-IMIDAZOL-4-YL]-PHENYL)-BENZAMIDE HYDROCHLORIDE] as the compound, how does the inhibition at 100 µM read?
Its inhibition at 100 µM is 20%.

How did the inhibition at 100 µM turn out when `COc1ccc(C(=O)Nc2ccc(-c3c[nH]c(-c4ccccc4)n3)cc2)cc1` [MV1303, 4-METHOXY-N-[4-[2-PHENYL-1H-IMIDAZOL-4-YL]-PHENYL]-BENZAMIDE HYDROCHLORIDE] was run?
Its inhibition at 100 µM is 0%.

Which inhibition at 100 µM does the source give for `COc1ccc(-c2ncc[nH]2)cc1` [MV1350, 2-(4-METHOXY-PHENYL)-1H-IMIDAZOLE OXALATE] here?
The inhibition at 100 µM was 25%.

Which inhibition at 100 µM does the source give for `Cc1nc(-c2ccccc2Cl)[nH]c1C` [MV1367, 2-(2-CHLORO-PHENYL)-4,5-DIMETHYL-1H-IMIDAZOLE OXALATE] here?
Its inhibition at 100 µM is 45%.

How did the inhibition at 100 µM turn out when `COc1ccccc1-c1nc2ccccc2[nH]1` [MV1073, 2-(2-methoxyphenyl)-1H-1,3-benzodiazole] was run?
Its inhibition at 100 µM is 40%.

What about the IC50 of the same compound?
Its IC50 is > 100 µM.

Which inhibition at 100 µM does the source give for `O=C(Nc1cccc(-c2c[nH]c(-c3ccccc3)n2)c1)c1ccc(Cl)cc1` [MV1311, 4-CHLORO-N-[3-(2-PHENYL-1H-IMIDAZOL-4-YL)-PHENYL]-BENZAMIDE HYDROCHLORIDE] here?
The inhibition at 100 µM was 90%.

With `O=C(Nc1cccc(-c2c[nH]c(-c3ccccc3)n2)c1)c1ccccc1` [MV1307, N-[3-(2-PHENYL-1H-IMIDAZOL-4-YL)-PHENYL]-BENZAMIDE HYDROCHLORIDE] as the compound, how does the inhibition at 100 µM read?
The inhibition at 100 µM was 25%.
